In BindingDB's records for doi:10.1016/j.bioorg.2006.01.004 (University of Zagreb, 2006):
Several values for one entry are separate records, joined by “and”; a condition that tells them apart may be missing. Equal entries are not always repeated.

Molecular target: Carboxylic ester hydrolase (Equus caballus, UniProt Q9N1N9)
Assay: Inhibition Assay
Settings: 40 °C
Procedure: Butyrylcholinesterase type IV-S, lyophilized from horse serum (sigma Chemical Co.) was used without further purification. HPLC analyses (Thermo Separation Products, Spectra SYSTEM 2000) were performed on an RP-18 column at 40 C.

Chain of Carboxylic ester hydrolase (Q9N1N9 whole entry): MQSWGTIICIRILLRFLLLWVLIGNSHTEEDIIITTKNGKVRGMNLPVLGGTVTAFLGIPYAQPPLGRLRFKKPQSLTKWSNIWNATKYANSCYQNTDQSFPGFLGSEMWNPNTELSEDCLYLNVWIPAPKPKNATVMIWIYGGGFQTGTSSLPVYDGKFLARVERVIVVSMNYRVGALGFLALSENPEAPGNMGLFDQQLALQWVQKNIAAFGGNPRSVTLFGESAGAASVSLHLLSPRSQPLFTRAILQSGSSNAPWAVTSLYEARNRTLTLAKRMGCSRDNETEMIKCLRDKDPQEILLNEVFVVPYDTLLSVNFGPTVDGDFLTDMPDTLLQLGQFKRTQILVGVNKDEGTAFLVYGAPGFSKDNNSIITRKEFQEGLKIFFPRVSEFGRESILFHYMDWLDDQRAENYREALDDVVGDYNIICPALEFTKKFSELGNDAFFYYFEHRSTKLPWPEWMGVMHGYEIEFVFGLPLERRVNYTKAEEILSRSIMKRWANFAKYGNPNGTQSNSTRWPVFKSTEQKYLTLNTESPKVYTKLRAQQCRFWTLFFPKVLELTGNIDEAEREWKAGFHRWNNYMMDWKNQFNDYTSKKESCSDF

Row | Structure (SMILES) | Ki
1 | O=C(NC1C[N+]2(Cc3ccccc3)CCC1CC2)c1ccccc1 [(S)-N-Benzyl-3-benzamidoquinuclidinium bromide, 12] | 25.9 µM and 3.7 µM
2 | CCCC(=O)NC1C[N+]2(Cc3ccccc3)CCC1CC2 [(S)-N-Benzyl-3-butanamidoquinuclidinium bromide, 9] | 160 µM and 242 µM
